In US20260091049A1, “HALIDE-FREE AMMONIUM SILANES” (TOPIKOS SCIENTIFIC, INC., priority 2022, published 2026):
“And” between values parts separate entries of the source, which are not always exact repeats. Equal entries are not always repeated.

Legend:
[1] = Polymerization stability in aqueous media by LCMS/MS quantification of hydrolyzed trisiloxy species; format: physicochemical
[2] = Clarity and dissolution of the solid product in water; format: physicochemical
Protocol: A 500 mL round bottom reaction vessel was outfitted with an oil bath, stir bar, distillation head and condenser, receiving flask, oil bubbler, gas inlet that allows argon to pass through vessel and distillation setup, an immersion thermoprobe for the oil bath, and a thermoprobe for the head. The reactor is charged with 47.6 mL of a 42% methanolic solution of dimethyloctadecyl[3-(trimethoxysilyl)propyl]ammonium chloride (Aldrich), 200 mL DMF, 27.7 g (3 equiv.) of N-Tris(hydroxymethyl)methyl-2-aminoethanesulfonic acid (TES) and 8.7 mL of 25% MeONa in MeOH. The mixture is heated to 125 degrees C. (oil temp) and the methanol is collected by distillation. As the reaction is heated a homogenous solution is formed. As the methanol is distilled off a white precipitate begins to form. The reaction is heated until the head temp drops and no more MeOH is evolved (about 1.5 hours). The reaction is then cooled to room temperature and the precipitate (NaCl) is removed by filtration through a glass fiber filter and the DMF was concentrated to about 100 mL total volume at reduced pressure. The solution is cooled to rt. A 1 L flask under argon and a stir bar is charged with anhydrous acetonitrile (1000 mL) and cooled to ˜10 C. The DMF solution is added slowly to rapidly stirring acetonitrile to form a white suspension. Stirring is continued for 30 minutes. […]

SMILES | 2022 Concentration of Compound 1 hydrolysis product, average ([1]; average of three measurements after storage under ambient conditions for multiple years) | 2019 Concentration of Compound 1 hydrolysis product, average ([1]; average of three measurements, reference value immediately after preparation) | stability to polymerization in aqueous media ([1]; over prolonged periods of time) | 2022 Concentration of Compound 1 hydrolysis product ([1]; single measurements after storage under ambient conditions for multiple years, expected 60 μg/mL, expressed as Compound 1 equivalent) | 2019 Concentration of Compound 1 hydrolysis product ([1]; single measurements immediately after preparation, Compound 1 diluted in water to expected 60 μg/mL, expressed as Compound 1 equivalent) | time a solution in water remains clear ([2]; 1% solution in water) [months] | dissolution of the powder in water ([2]; fine powder, water, gentle heating)
CCCCCCCCCCCCCCCCCC[N+](C)(C)CCC[Si](O)(O)O [Compound 1 hydrolysis product] | Average: 58.3 μg/mL | Average: 62.6 μg/mL | excellent stability to polymerization | 59.2 µg/mL and 54.8 µg/mL and 60.9 µg/mL | 69.1 µg/mL and 54.3 µg/mL and 64.4 µg/mL |  | 
CCCCCCCCCCCCCCCCCC[N+](C)(C)CCC[Si](OCC(CO)(CO)NCCS(=O)(=O)[O-])(OCC(CO)(CO)NCCS(=O)(=O)O)OCC(CO)(CO)NCCS(=O)(=O)O [Example 1, 2-[[1-[[3-[dimethyl(octadecyl)ammonio]propyl-[3-hydroxy-2-(hydroxymethyl)-2-(2-sulfoethylamino)propoxy]-[3-hydroxy-2-(hydroxymethyl)-2-(2-sulfoethylamino)propoxy]silyl]oxymethyl]-2-hydroxy-1-(hydroxymethyl)ethyl]amino]-ethanesulfonate] |  |  |  |  |  | > 5 | dissolves quickly in water with gentle heating
